Laboratory results reported in ChEMBL document CHEMBL3621092, “Lipid-conjugated Smac analogues” (Bioorg Med Chem Lett, 2015).

Experiments:
MDA-MB-231 [1] = experiment: Induction of apoptosis in human MDA-MB-231 cells assessed as increase in caspase-3/7 activity incubated for 24 hrs by luminescence based assay relative to control; format: functional
MDA-MB-231 [2] = experiment: Growth inhibition of human MDA-MB-231 cells assessed as reduction in cell viability incubated for 48 hrs by PrestoBlue dye based florescence assay; format: functional; conditions: MDA-MB-231, 48 h
MDA-MB-231 [3] = experiment: Induction of apoptosis in human MDA-MB-231 cells assessed as increase in caspase-3/7 activity incubated for 24 hrs by luminescence based assay; format: functional, cell-based
[4] = Stability in mouse plasma incubated at 37 degC by LC/MS method; format: ADME, cell-free; conditions: read-out: Stability

SMILES	EC50 (MDA-MB-231 [2])	also measured
CN[C@@H](C)C(=O)N[C@@H](CCCCNc1cc(NCCCC[C@H](NC(=O)[C@H](C)NC)C(=O)N2CCC[C@H]2C(=O)NC(c2ccccc2)c2ccccc2)c([N+](=O)[O-])cc1[N+](=O)[O-])C(=O)N1CCC[C@H]1C(=O)NC(c1ccccc1)c1ccccc1		fold change (FC) (MDA-MB-231 [1]): 2.7
CN[C@@H](C)C(=O)N[C@@H](CCCCNC(=O)Nc1ccc(Oc2ccc(NC(=O)NCCCC[C@H](NC(=O)[C@H](C)NC)C(=O)N3CCC[C@H]3C(=O)NC(c3ccccc3)c3ccccc3)cc2)cc1)C(=O)N1CCC[C@H]1C(=O)NC(c1ccccc1)c1ccccc1	14.4 µM	
CN[C@@H](C)C(=O)N[C@@H](CSCc1ccc(CSC[C@H](NC(=O)[C@H](C)NC)C(=O)N2CCC[C@H]2C(=O)NC(c2ccccc2)c2ccccc2)cc1)C(=O)N1CCC[C@H]1C(=O)NC(c1ccccc1)c1ccccc1	9.6 µM	
CN[C@@H](C)C(=O)N[C@@H](CS)C(=O)N1CCC[C@H]1C(=O)NC(c1ccccc1)c1ccccc1	> 100 µM	
CN[C@@H](C)C(=O)N[C@@H](CSSC(C)(C)C)C(=O)N1CCC[C@H]1C(=O)NC(c1ccccc1)c1ccccc1	49.9 µM	
CN[C@@H](C)C(=O)N[C@@H](CSCc1cccc(Cc2cccc(CSC[C@H](NC(=O)[C@H](C)NC)C(=O)N3CCC[C@H]3C(=O)NC(c3ccccc3)c3ccccc3)c2)c1)C(=O)N1CCC[C@H]1C(=O)NC(c1ccccc1)c1ccccc1	> 100 µM	
CN[C@@H](C)C(=O)N[C@@H](CSCC(=O)NCCNC(=O)CSC[C@H](NC(=O)[C@H](C)NC)C(=O)N1CCC[C@H]1C(=O)NC(c1ccccc1)c1ccccc1)C(=O)N1CCC[C@H]1C(=O)NC(c1ccccc1)c1ccccc1	> 100 µM	
CN[C@@H](C)C(=O)N[C@@H](CCCCNC(=O)OCC1c2ccccc2-c2ccccc21)C(=O)N1CCC[C@H]1C(=O)NC(c1ccccc1)c1ccccc1	19 µM	
CN[C@@H](C)C(=O)N[C@@H](CO)C(=O)N1CCC[C@H]1C(=O)NC(c1ccccc1)c1ccccc1	> 100 µM	
CN[C@@H](C)C(=O)N[C@@H](CCCCNC(=N)N)C(=O)N1CCC[C@H]1C(=O)NC(c1ccccc1)c1ccccc1	> 100 µM	
CCCCCCCCCCCCCCCCCCCCCCCC(=O)NCCCC[C@H](NC(=O)[C@H](C)NC)C(=O)N1CCC[C@H]1C(=O)NC(c1ccccc1)c1ccccc1	> 100 µM	
CN[C@@H](C)C(=O)N[C@@H](CCCCN)C(=O)N1CCC[C@H]1C(=O)NC(c1ccccc1)c1ccccc1	> 100 µM	
CN[C@@H](C)C(=O)N[C@@H](CCCCNC(=O)NCCCC[C@H](NC(=O)[C@H](C)NC)C(=O)N1CCC[C@H]1C(=O)NC(c1ccccc1)c1ccccc1)C(=O)N1CCC[C@H]1C(=O)NC(c1ccccc1)c1ccccc1	> 100 µM	
CN[C@@H](C)C(=O)N[C@@H](CSCc1cccc(CSC[C@H](NC(=O)[C@H](C)NC)C(=O)N2CCC[C@H]2C(=O)NC(c2ccccc2)c2ccccc2)c1)C(=O)N1CCC[C@H]1C(=O)NC(c1ccccc1)c1ccccc1	7.4 µM	
CN[C@@H](C)C(=O)N[C@@H](CSCc1ccc(-c2ccc(CSC[C@H](NC(=O)[C@H](C)NC)C(=O)N3CCC[C@H]3C(=O)NC(c3ccccc3)c3ccccc3)cc2)cc1)C(=O)N1CCC[C@H]1C(=O)NC(c1ccccc1)c1ccccc1	4 µM	fold change (FC) (MDA-MB-231 [1]): 2.7
CCCCCCCCCCCCCCCC(=O)N(CC(=O)NCCCC[C@H](NC(=O)[C@H](C)NC)C(=O)N1CCC[C@H]1C(=O)NC(c1ccccc1)c1ccccc1)CC(=O)NCCCC[C@H](NC(=O)[C@H](C)NC)C(=O)N1CCC[C@H]1C(=O)NC(c1ccccc1)c1ccccc1	4.2 µM	Activity (MDA-MB-231 [3]): Dose-dependent effect; half-life [4]: < 1860 min
CN[C@@H](C)C(=O)N[C@@H](CSCc1ccc(Oc2ccc(CSC[C@H](NC(=O)[C@H](C)NC)C(=O)N3CCC[C@H]3C(=O)NC(c3ccccc3)c3ccccc3)cc2)cc1)C(=O)N1CCC[C@H]1C(=O)NC(c1ccccc1)c1ccccc1	18.4 µM	
CCCCCCCCCCCCCCCC(=O)OCCN(CC(=O)NCCCC[C@H](NC(=O)[C@H](C)NC)C(=O)N1CCC[C@H]1C(=O)NC(c1ccccc1)c1ccccc1)CC(=O)NCCCC[C@H](NC(=O)[C@H](C)NC)C(=O)N1CCC[C@H]1C(=O)NC(c1ccccc1)c1ccccc1	4.3 µM	
CN[C@@H](C)C(=O)N[C@@H](CSCCS(=O)(=O)CCSC[C@H](NC(=O)[C@H](C)NC)C(=O)N1CCC[C@H]1C(=O)NC(c1ccccc1)c1ccccc1)C(=O)N1CCC[C@H]1C(=O)NC(c1ccccc1)c1ccccc1	52.4 µM	
CN[C@@H](C)C(=O)N[C@@H](CCCCNC(=O)CNCC(=O)NCCCC[C@H](NC(=O)[C@H](C)NC)C(=O)N1CCC[C@H]1C(=O)NC(c1ccccc1)c1ccccc1)C(=O)N1CCC[C@H]1C(=O)NC(c1ccccc1)c1ccccc1	> 100 µM	
CCCCCCCCCCCCCCCCSCc1cc(CSC[C@H](NC(=O)[C@H](C)NC)C(=O)N2CCC[C@H]2C(=O)NC(c2ccccc2)c2ccccc2)cc(CSC[C@H](NC(=O)[C@H](C)NC)C(=O)N2CCC[C@H]2C(=O)NC(c2ccccc2)c2ccccc2)c1	11.3 µM	
CN[C@@H](C)C(=O)N[C@@H](CCCCNC(=O)O[C@H]1CC[C@@]2(C)C(=CCC3C2CC[C@@]2(C)C3CC[C@@H]2[C@H](C)CCCC(C)C)C1)C(=O)N1CCC[C@H]1C(=O)NC(c1ccccc1)c1ccccc1 (some centres not stated)	9.7 µM	
CN[C@@H](C)C(=O)N[C@@H](CCCCNC(=O)Nc1ccc(NC(=O)NCCCC[C@H](NC(=O)[C@H](C)NC)C(=O)N2CCC[C@H]2C(=O)NC(c2ccccc2)c2ccccc2)cc1)C(=O)N1CCC[C@H]1C(=O)NC(c1ccccc1)c1ccccc1	34.8 µM	
CN[C@@H](C)C(=O)N[C@@H](CCCCNC(=O)CCCCCCC(=O)NCCCC[C@H](NC(=O)[C@H](C)NC)C(=O)N1CCC[C@H]1C(=O)NC(c1ccccc1)c1ccccc1)C(=O)N1CCC[C@H]1C(=O)NC(c1ccccc1)c1ccccc1	> 100 µM	
